According to patent US20100286278A1, “Composition comprising an HDAC inhibitor in combination with a retinoid” (DSM IP ASSETS B.V., priority 2004, published 2010):

System: transglutaminase 1 (TG1) mRNA in human epidermal keratinocytes
Assay: Expression of transglutaminase 1 (TG1) by differentiating keratinocytes (real time PCR of TG1 mRNA)
Assay type: cell-based
Conditions: substances alone: retinol 1×10−10 M, TSA 10−9 M; 1.3 mM calcium; 72 hours; relative to non-treated cells
Excerpt: This example illustrates how the HDAC inhibitor Trichostatin A and Retinol work synergistically. An in vitro cell culture of human primary keratinocytes has been chosen as test system. This in vitro cell culture model is useful to study differentiation processes and is able to simulate the in vivo situation in human skin (Poumay et al., 1999). To monitor differentiation processes in vitro and in vivo transglutaminase 1 is a well known marker molecule (Polakowska et al., 1999).
Epidermal keratinocytes were isolated from human foreskin biopsies and cultured in keratinocyte serum free medium (KSFM made by GIBCO) in a growth chamber with 37° C. and 5% CO2. At the second passage, cells were transferred to 6 well plates and allowed to reach approximately 50% surface confluence.
Retinol and TSA were solubilized in ethanol or ethanol/tetrahydrofuran respectively. Retinol solutions were handled under yellow light conditions only. […]
Seventy-two hours after the beginning of the treatment, cells were harvested and the RNA extracted. […] Relative quantification of TG1 mRNA transcript levels in control versus treatment cultures were determined using multiplexed real time PCR analysis. […]

SMILES	modulation of the terminal differentiation process in epidermal keratinocytes (TG1 mRNA)
CC1=C(/C=C/C(C)=C/C=C/C(C)=C/CO)C(C)(C)CCC1 [Retinol]	only weak modulation
CC(/C=C/C(=O)NO)=C\[C@@H](C)C(=O)c1ccc(N(C)C)cc1 [TSA, Trichostatin A]	only weak modulation
